From publication PMC11506537, “An 11-mer Synthetic Peptide Suppressing Aggregation of Aβ25-35 and Resolving Its Aggregated Form Improves Test Performance in an Aβ25-35-Induced Alzheimer’s Mouse Model” (Biomolecules, 2024)
Where a SMILES comes first, the peptide text is derived from it.

Tests used:
aggregated Aβ25-35 = experiment: SEM, resolution of aggregated Aβ25-35; type: biochemical
Description: Aβ25-35 (100 μM) was incubated with YS-RD11 or YS-RE16 in PBS at 37 °C. The reaction mixture was centrifuged at 9000 rpm for 5 min. The supernatant was removed, 200 μL of MilliQ water was added and mixed, and the solution was centrifuged at 9000 rpm for 5 min to obtain a sample for SEM [42]. Aggregated Aβ25-35 (100 μM) peptides were prepared by incubating for 18 h in PBS.
Next, the resolving effect of YS-RD11, YS-RE16, and YS-DE6 on aggregated Aβ25-35 was assessed by observing its shape using SEM.

Aβ25-35 = target: T1, Aβ25-35 (Homo sapiens, UniProt P05067); experiment: ThT assay, inhibition of Aβ25-35 aggregation; type: biochemical; conditions: for IC50: 100 µM Aβ25-35, PBS, 37 °C, 4 h, ThT fluorescence, n = 3
T1 construct: made in house; host or cells: chemical solid-phase (Fmoc) peptide synthesis; no expression host
Description: To perform the ThT assay to evaluate aggregation, Aβ25-35 (final concentration of 100 μM) was incubated with ThT solution (final concentration of 10 μM) in Phosphate-buffered saline (PBS), pH 7.4. The ThT signal was monitored by measuring the fluorescence emission at 480 nm for 10 s when excited at 444 nm using Cytation 5 (BioTek, Vermont, WI, USA) at 37 °C [41]. Aggregated Aβ25-35 (100 μM) peptides were prepared by incubating for 18 h in PBS.
We also evaluated inhibitory effects in a time-dependent manner. The fluorescence intensity of the reaction mixture of peptide and Aβ25-35 was traced for 120 min at 15 min intervals.
Therefore, we evaluated the concentration-dependent aggregation inhibitory effect of YS-RD11 and YS-RE16 on Aβ25-35. Various concentrations of the peptides (YS-RD11; 1 to 100 µM, YS-RE16; 0.01 to 10 µM) were incubated independently with 100 µM Aβ25-35 (final con. 100 µM) in PBS at 37 °C. The fluorescence intensity of reaction mixtures was measured after 4 h.

A549 cells = experiment: A549 cell viability, WST-8 assay; conditions: 0.1 mg/mL peptide, 72 h, WST-8, n = 4; compared with FLAG peptide
Description: The human lung cancer cell line, A549, was obtained from the Riken Cell Bank (Ibaraki, Japan). The cells were cultured as described previously [30, 43]. Briefly, A549 cells (4 × 10^3 cells/well) were seeded into 96-well plates and maintained in Dulbecco’s modified Eagle’s medium (DMEM) supplemented with 10% fetal bovine serum, 100 units/mL penicillin, and 100 μg/mL streptomycin at 37 °C in a humidified atmosphere with 5% CO2. […] After incubation for 72 h, the medium was exchanged for 110 μL of medium containing 10 μL WST-8 (water-soluble tetrazolium salt WST-8) reagent and 100 μL DMEM). The cells were further incubated for 1 h, the absorbance was determined at 450 nm with a reference wavelength of 620 nm using a SPECTRA max Plus384 microplate reader (Molecular Devices, LCC, San Jose, CA, USA).

[1] = in vivo; cited from earlier work
u-proMMP-7 = conditions: cited from earlier work
Description: Chaperones are potential drug candidates for folding diseases, such as AD and Parkinson’s disease, which are caused by protein aggregation. In recent years, research has focused on low-molecular-weight chemical chaperones rather than on chaperone proteins. Biochemical methods are used to screen for chemical chaperones with the aim of developing therapeutic agents for lysosomal diseases, which are ...

Aβ42 = tested on: Aβ42; set-up: method as in 2 sources, ref 28 = [28]; PMID 30930080; doi:10.1016/j.peptides.2019.03.005; 28. Nakamura R. Konishi M. Taniguchi M. Hatakawa Y. Akizawa T. The discovery of shorter synthetic proteolytic peptides derived from Tob1 protein Peptides 2019 116 71 77 10.1016/j.peptides.2019.03.005 ||| ref 29, 30, 31 = [29]; PMID 31687556; doi:10.1016/j.heliyon.2019.e02454; 29. Hatakawa Y. Nakamura R. Konishi M. Sakane T. Saito M. Akizawa T. Catalytides derived from the Box A region in the ANA/BTG3 protein cleave amyloid-β fragment peptide Heliyon 2019 5 e02454 10.1016/j || [30]; PMID 33816760; doi:10.1002/trc2.12146; 30. Hatakawa Y. Nakamura R. Konishi M. Sakane T. Tanaka A. Matsuda A. Saito M. Akizawa T. Amyloid beta cleavage by ANA-TA9, a synthetic peptide from the ANA/BTG3 Box A region Alzheimers Dement. Transl || [31]; 31. Nakamura R. Konishi M. Hatakawa Y. Saito M. Akizawa T. The Novel Catalytic Peptide, A Synthetic Nona-Peptide (JAL-TA9) Derived from Tob1 Protein, Digests the Amyloid-β Peptide J. R. Sci. 2019 1 30; conditions: cited from earlier work
[2] = set-up: method as in PMID 30930080; conditions: structure–activity relationship of JAL-AK22; cited from earlier work
Solubility = type: physicochemical; conditions: stated without data
patients with AD = conditions: cited from earlier work
Description: Alzheimer’s disease (AD) is the most common age-related neurodegenerative disorder worldwide. Amyloid-β (Aβ) 42, which is produced by the cleavage of amyloid precursor protein (APP) by β- or γ-secretases, is considered to cause AD [1, 2, 3]. […] Thus, the current main strategy is to develop Aβ antibodies and vaccines aimed at inhibiting Aβ aggregation. […] Lecanemab, the latest Aβ ant ...

Molecule: DYDDTE [YS-DE6, peptide derived from YS-RE20, DYDDTE]
- amyloid fibrils observed by SEM, peptide 100 µM (aggregated Aβ25-35; 100 µM peptide + 100 µM aggregated Aβ25-35 (18 h), PBS): a cluster of amyloid fibrils
- effect on Aβ25-35 aggregation, negative control (aggregated Aβ25-35; YS-DE6 as negative control): did not show any effect against Aβ25-35 aggregation

Molecule: CC(C)C[C@H](NC(=O)[C@H](Cc1c[nH]cn1)NC(=O)[C@@H](NC(=O)[C@H](CC(C)C)NC(=O)[C@H](Cc1ccc(O)cc1)NC(=O)[C@@H](NC(=O)[C@H](CC(C)C)NC(=O)[C@@H](NC(=O)[C@H](CCC(=O)O)NC(=O)[C@@H](N)CCCNC(=N)N)[C@@H](C)O)C(C)C)[C@@H](C)O)C(=O)N[C@@H](CC(=O)O)C(=O)N[C@@H](Cc1ccc(O)cc1)C(=O)N[C@@H](CC(=O)O)C(=O)N[C@@H](CC(=O)O)C(=O)N[C@H](C(=O)N[C@@H](CCC(=O)O)C(=O)O)[C@@H](C)O [YS-RE16] (H-RETLVYLTHLDYDDTE-OH)
- IC50 (Aβ25-35): ~500 nM
- effect on growth of A549 cells (A549 cells): did not show a significant inhibitory effect on the growth of A549 cells

Molecule: oxytocin: the peptide oxytocin
- drug delivery to the brain via nasal application [1]: direct and efficient drug delivery

Molecule: KWEGHWYPEKPYKGSGFRCIHI [JAL-AK22, reference compound]
- activation of proMMP-7 (u-proMMP-7): activates proMMP-7 by cleaving the pro-domain of MMP-7

Molecule: YKGSGFRMI [JAL-TA9]
- cleavage of Aβ42 (Aβ42): cleaved Aβ42 with serine protease-like activity
- cleavage of soluble (a-Aβ42) and solid insoluble (s-Aβ42) Aβ42 (Aβ42): cleaved both the authentic soluble form Aβ42 (a-Aβ42) and the solid insoluble form Aβ42 (s-Aβ42) in the central region
- auto-proteolytic activity [2]: strongest auto-proteolytic activity

Molecule: YKNMRETLVYLTHLDYDDTE [YS-YE20]
- activation of u-proMMP7 (u-proMMP-7; screening of 3000 types of peptides, no reference given): activates u-proMMP7 by acting as a chaperone rather than Catalytide

Molecule: YKNMRETLVYLTHLD [YS-YD15]
- aggregation inhibitory activity against Aβ25-35 (conclusion in words) (Aβ25-35; ThT, 100 μM peptides, PBS): weak inhibitory activity

Molecule: CC(C)C[C@H](NC(=O)[C@H](Cc1c[nH]cn1)NC(=O)[C@@H](NC(=O)[C@H](CC(C)C)NC(=O)[C@H](Cc1ccc(O)cc1)NC(=O)[C@@H](NC(=O)[C@H](CC(C)C)NC(=O)[C@@H](NC(=O)[C@H](CCC(=O)O)NC(=O)[C@@H](N)CCCNC(=N)N)[C@@H](C)O)C(C)C)[C@@H](C)O)C(=O)N[C@@H](CC(=O)O)C(=O)O [YS-RD11] (H-RETLVYLTHLD-OH)
- IC50 (Aβ25-35): ~1500 nM
- solubility (Solubility): high solubility
- effect on growth of A549 cells (A549 cells): did not show a significant inhibitory effect on the growth of A549 cells

B1: lecanemab: latest Aβ antibody drug approved by the U.S. Food and Drug Administration (antibody, chains of the INN, looked up, V domains shown)
VH: EVQLVESGGGLVQPGGSLRLSCSASGFTFSSFGMHWVRQAPGKGLEWVAYISSGSSTIYYGDTVKGRFTISRDNAKNSLFLQMSSLRAEDTAVYYCAREGGYYYGRSYYTMDYWGQGTTVTVSS
VL: DVVMTQSPLSLPVTPGAPASISCRSSQSIVHSNGNTYLEWYLQKPGQSPKLLIYKVSNRFSGVPDRFSGSGSGTDFTLRISRVEAEDVGIYYCFQGSHVPPTFGPGTKLEIK
- side effects (patients with AD): cerebral edema and cerebral microhemorrhage
- clinical effectiveness by AD stage (patients with AD; patients with AD, no reference at this sentence): potentially effective in the early stages of AD but is less effective in the later stages
